# Data from ChEMBL document CHEMBL1150515, “Synthesis and structure-activity relationships of novel THF 1-methylcarbapenems II” (1997).
# Columns and labels:
# [1] = system: Acinetobacter calcoaceticus; test: Antimicrobial activity against Acinetobacter calcoaceticus (GC 756); format: functional
# [2] = Antimicrobial activity against Citrobacter freundii (GC 2211); format: functional
# [3] = molecular target: T1, Dipeptidase 1 (Sus scrofa) (UniProt P22412); test: Relative hydrolysis to that of imipenem was determined by hog renal dehydropeptidase
# T1 sequence (whole entry): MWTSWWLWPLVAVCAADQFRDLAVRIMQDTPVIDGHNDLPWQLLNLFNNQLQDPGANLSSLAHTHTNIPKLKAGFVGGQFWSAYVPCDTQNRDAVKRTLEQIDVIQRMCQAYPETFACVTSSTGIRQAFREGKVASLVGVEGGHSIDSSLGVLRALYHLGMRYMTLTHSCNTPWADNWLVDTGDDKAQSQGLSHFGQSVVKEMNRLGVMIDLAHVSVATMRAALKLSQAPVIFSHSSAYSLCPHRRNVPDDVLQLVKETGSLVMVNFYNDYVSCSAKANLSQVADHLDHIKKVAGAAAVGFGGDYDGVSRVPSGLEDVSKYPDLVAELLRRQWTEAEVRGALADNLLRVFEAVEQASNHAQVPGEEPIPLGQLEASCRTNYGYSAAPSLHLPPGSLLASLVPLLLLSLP
# [4] = Antimicrobial activity against Enterococcus faecium (GC 1182); format: functional
# [5] = Antimicrobial activity against Enterobacter cloacae (GC 2209); format: functional
# [6] = Antimicrobial activity against Enterococcus faecalis (GC 842); format: functional
# [7] = system: Escherichia coli; test: Antimicrobial activity against Escherichia coli (ATCC 25922); format: functional
# [8] = system: Escherichia coli; test: Antimicrobial activity against Escherichia coli (GC 1792); format: functional
# [9] = system: Escherichia coli; test: Antimicrobial activity against Escherichia coli (GC 2205); format: functional
# [10] = Antimicrobial activity against Morganella morganii (GC 2213); format: functional
# [11] = system: Pseudomonas aeruginosa; test: Antimicrobial activity against Pseudomonas aeruginosa (ATCC 27853); format: functional
# [12] = system: Pseudomonas aeruginosa; test: Antimicrobial activity against Pseudomonas aeruginosa (GC 1544 OprD); format: functional
# [13] = system: Stenotrophomonas maltophilia; test: The compound was evaluated for the antimicrobial activity against Xanthomonas maltophilia (GC 562); format: functional
# [14] = system: Staphylococcus aureus; test: Antimicrobial activity against methicillin - resistant Staphylococcus aureus (GC 2220); format: functional
# [15] = system: Staphylococcus aureus; test: The compound was evaluated for the antimicrobial activity against Staphylococcus aureus (ATCC 29213); format: functional
# [16] = system: Enterococcus faecium; test: The compound was evaluated for the antimicrobial activity against Enterococcus faecium (GC 1182); format: functional
# [17] = system: Staphylococcus aureus; test: The compound was evaluated for the antimicrobial activity against methicillin - resistant Staphylococcus aureus (GC 2220); format: functional
# [18] = system: Enterococcus faecalis; test: The compound was evaluated for the antimicrobial activity against Enterococcus faecalis (GC 842); format: functional
# [19] = system: Staphylococcus aureus; test: Antimicrobial activity against Staphylococcus aureus (ATCC 29213); format: functional
# [20] = Antimicrobial activity against Xanthomonas maltophilia (GC 562); format: functional; details: Stenotrophomonas maltophilia
# [21] = molecular target: T1, Dipeptidase 1 (Sus scrofa); test: Relative hydrolysis of compound to that of imipenem was determined by hog renal dehydropeptidase; format: functional
SMILES,MIC [1],MIC [2],Relative hydrolysis [3],MIC [4],MIC [5],MIC [6],MIC [7],MIC [8],MIC [9],MIC [10],MIC [11],MIC [12],MIC [14],MIC [19],MIC [20],other results
C[C@@H](O)[C@H]1C(=O)N2C(C(=O)[O-])=C(SC3COC(CN)C3)[C@H](C)[C@H]12.[Na+] (stereo not given in full),1 µg/mL,0.06 µg/mL,19,> 128 µg/mL,≤ 0.06 µg/mL,2 µg/mL,≤ 0.06 µg/mL,0.06 µg/mL,≤ 0.06 µg/mL,0.25 µg/mL,4 µg/mL,8 µg/mL,8 µg/mL,,,MIC [13]: > 128 µg/mL; MIC [15]: ≤ 0.06 µg/mL
CCN1CCN(C(=O)NC[C@H]2OCC[C@H]2SC2=C(C(=O)[O-])N3C(=O)[C@H]([C@@H](C)O)[C@H]3[C@H]2C)C(=O)C1=O.[Na+],2 µg/mL,0.12 µg/mL,9,,≤ 0.06 µg/mL,,≤ 0.06 µg/mL,≤ 0.06 µg/mL,≤ 0.06 µg/mL,0.5 µg/mL,16 µg/mL,32 µg/mL,,≤ 0.06 µg/mL,> 128 µg/mL,MIC [16]: > 128 µg/mL; MIC [17]: 8 µg/mL; MIC [18]: 4 µg/mL
C[C@H](N)C(=O)NCC1CC(SC2=C(C(=O)[O-])N3C(=O)[C@H]([C@@H](C)O)[C@H]3[C@H]2C)CO1.[Na+] (stereo not given in full),8 µg/mL,1 µg/mL,,> 128 µg/mL,0.25 µg/mL,4 µg/mL,≤ 0.06 µg/mL,≤ 0.06 µg/mL,≤ 0.06 µg/mL,1 µg/mL,32 µg/mL,64 µg/mL,8 µg/mL,0.12 µg/mL,> 128 µg/mL,Relative hydrolysis [21]: 10
C[C@@H](O)[C@H]1C(=O)N2C(C(=O)[O-])=C(S[C@@H]3CCO[C@@H]3CN(C)C)[C@H](C)[C@H]12.[Na+],4 µg/mL,0.25 µg/mL,7.5,64 µg/mL,≤ 0.12 µg/mL,1 µg/mL,0.03 µg/mL,0.06 µg/mL,0.06 µg/mL,0.5 µg/mL,16 µg/mL,32 µg/mL,4 µg/mL,0.06 µg/mL,> 128 µg/mL,
CC(=O)NC[C@H]1OCC[C@H]1SC1=C(C(=O)[O-])N2C(=O)[C@H]([C@@H](C)O)[C@H]2[C@H]1C.[Na+],16 µg/mL,2 µg/mL,4,> 128 µg/mL,0.5 µg/mL,8 µg/mL,≤ 0.06 µg/mL,0.12 µg/mL,≤ 0.06 µg/mL,0.5 µg/mL,128 µg/mL,> 128 µg/mL,16 µg/mL,0.12 µg/mL,> 128 µg/mL,
C[C@H](N)C(=O)N[C@@H](C)C(=O)NC[C@H]1OCC[C@H]1SC1=C(C(=O)[O-])N2C(=O)[C@H]([C@@H](C)O)[C@H]2[C@H]1C.[Na+],32 µg/mL,8 µg/mL,13,> 128 µg/mL,2 µg/mL,4 µg/mL,≤ 0.06 µg/mL,≤ 0.06 µg/mL,0.12 µg/mL,2 µg/mL,64 µg/mL,> 128 µg/mL,64 µg/mL,1 µg/mL,> 128 µg/mL,
C[C@@H](O)[C@H]1C(=O)N2C(C(=O)[O-])=C(S[C@@H]3CCO[C@@H]3CN)[C@H](C)[C@H]12.[Na+],2 µg/mL,≤ 0.06 µg/mL,8.5,64 µg/mL,≤ 0.06 µg/mL,0.5 µg/mL,≤ 0.06 µg/mL,≤ 0.06 µg/mL,≤ 0.06 µg/mL,0.5 µg/mL,8 µg/mL,16 µg/mL,1 µg/mL,≤ 0.06 µg/mL,> 128 µg/mL,
C[C@@H](O)[C@H]1C(=O)N2C(C(=O)O)=C(SCCNC=N)C[C@H]12 [IMIPENEM ANHYDROUS],0.25 µg/mL,0.25 µg/mL,100,64 µg/mL,≤ 0.06 µg/mL,1 µg/mL,0.12 µg/mL,≤ 0.06 µg/mL,0.12 µg/mL,1 µg/mL,1 µg/mL,16 µg/mL,1 µg/mL,≤ 0.06 µg/mL,> 128 µg/mL,
CC(=O)NCC1CC(SC2=C(C(=O)[O-])N3C(=O)[C@H]([C@@H](C)O)[C@H]3[C@H]2C)CO1.[Na+] (stereo not given in full),8 µg/mL,2 µg/mL,4,> 128 µg/mL,0.5 µg/mL,8 µg/mL,≤ 0.06 µg/mL,0.12 µg/mL,≤ 0.06 µg/mL,0.5 µg/mL,64 µg/mL,128 µg/mL,16 µg/mL,0.12 µg/mL,> 128 µg/mL,
C[C@H](N)C(=O)NC[C@H]1OCC[C@H]1SC1=C(C(=O)[O-])N2C(=O)[C@H]([C@@H](C)O)[C@H]2[C@H]1C.[Na+],16 µg/mL,1 µg/mL,12,> 128 µg/mL,0.25 µg/mL,4 µg/mL,≤ 0.06 µg/mL,≤ 0.06 µg/mL,≤ 0.06 µg/mL,1 µg/mL,32 µg/mL,64 µg/mL,8 µg/mL,0.12 µg/mL,> 128 µg/mL,
